Reference: article PMC4890880 (ACS infectious diseases, 2016)
Like-named read-outs stand apart in the source and are kept apart here.

What was measured:
[1] = tested on: Plasmodium berghei (Pb-Luc) exoerythrocytic-stage parasites; conditions: for normalised signal at concentration 10 (first series): concentration 10, first series of dose columns; for normalised signal at concentration 10 (second series): concentration 10, second series of dose columns; for IC50: read-out: PbLuc_IC50
[2] = tested on: HepG2-A16-CD81EGFP cells; conditions: for IC50: read-out: Tox_IC50, HepG2 cytotoxicity
[3] = sheet "2nd round", Broad compounds, dose response top concentration 10
[4] = 2nd round, maximal inhibition in dose series
[5] = sheet 2nd round, maximal inhibition in dose response

Structure (SMILES): CC(C)[C@@H]1COCc2cnnn2CCC[C@H](C)C(=O)N1 [BRD-K01882341-001-02-9]
- normalised signal at concentration 0.000508053 (first series) [1]: 0.8014
- normalised signal at concentration 0.000508053 (second series) [1]: 0.9562
- normalised signal at concentration 0.00152416 (first series) [1]: 0.9047
- normalised signal at concentration 0.00152416 (second series) [1]: 0.8755
- normalised signal at concentration 0.00457247 (first series) [1]: 0.9797
- normalised signal at concentration 0.00457247 (second series) [1]: 1.034
- normalised signal at concentration 0.0137174 (first series) [1]: 0.9629
- normalised signal at concentration 0.0137174 (second series) [1]: 0.9854
- normalised signal at concentration 0.0411523 (first series) [1]: 0.8726
- normalised signal at concentration 0.0411523 (second series) [1]: 0.8168
- normalised signal at concentration 0.123457 (first series) [1]: 0.9418
- normalised signal at concentration 0.123457 (second series) [1]: 1.121
- normalised signal at concentration 0.37037 (first series) [1]: 0.9345
- normalised signal at concentration 0.37037 (second series) [1]: 0.7926
- normalised signal at concentration 1.11111 (first series) [1]: 0.8828
- normalised signal at concentration 1.11111 (second series) [1]: 0.9806
- normalised signal at concentration 3.33333 (first series) [1]: 0.9641
- normalised signal at concentration 3.33333 (second series) [1]: 0.9379
- normalised signal at concentration 10 (first series) [1]: 1.091
- normalised signal at concentration 10 (second series) [1]: 0.8693
- IC50 [1, 3]: > 10 µM
- PbLuc_max_inhibition (%) ([1]; sheet "2nd round"): 21%
- IC50 ([2]; sheet "2nd round"): > 10 µM
- Tox_max_inhibition (%) ([2]; sheet "2nd round"): 4.53%

Structure (SMILES): COc1ccc(NC(=O)N(C)C[C@H]2Oc3c(NC(=O)CCCCCC(=O)Nc4ccccc4N)cccc3C(=O)N([C@@H](C)CO)C[C@H]2C)cc1 [BRD-K03339938-001-01-9]
- normalised signal at concentration 0.000508053 (first series) [1]: 1.103
- normalised signal at concentration 0.000508053 (second series) [1]: 1.02
- normalised signal at concentration 0.00152416 (first series) [1]: 0.9211
- normalised signal at concentration 0.00152416 (second series) [1]: 0.7891
- normalised signal at concentration 0.00457247 (first series) [1]: 0.9975
- normalised signal at concentration 0.00457247 (second series) [1]: 0.8582
- normalised signal at concentration 0.0137174 (first series) [1]: 0.9216
- normalised signal at concentration 0.0137174 (second series) [1]: 0.8637
- normalised signal at concentration 0.0411523 (first series) [1]: 0.9804
- normalised signal at concentration 0.0411523 (second series) [1]: 0.9024
- normalised signal at concentration 0.123457 (first series) [1]: 0.8136
- normalised signal at concentration 0.123457 (second series) [1]: 0.9499
- normalised signal at concentration 0.37037 (first series) [1]: 0.9387
- normalised signal at concentration 0.37037 (second series) [1]: 1.008
- normalised signal at concentration 1.11111 (first series) [1]: 0.9514
- normalised signal at concentration 1.11111 (second series) [1]: 0.9972
- normalised signal at concentration 3.33333 (first series) [1]: 1.011
- normalised signal at concentration 3.33333 (second series) [1]: 1.0698
- normalised signal at concentration 10 (first series) [1]: 1.4773
- normalised signal at concentration 10 (second series) [1]: 1.187
- IC50 [1, 3]: > 10 µM
- PbLuc_max_inhibition (%) ([1]; sheet "2nd round"): 21%
- IC50 ([2]; sheet "2nd round"): > 10 µM
- Tox_max_inhibition (%) ([2]; sheet "2nd round"): 4.46%

Structure (SMILES): C[C@H]1CN([C@@H](C)CO)C(=O)c2cccc(NC(=O)c3ccc(-c4nccs4)cc3)c2O[C@@H]1CN(C)C(=O)Nc1ccc(C(F)(F)F)cc1 [BRD-K03390828-001-01-5]
- PbLuc_max_inhibition (%) [1, 4]: 34%
- normalized signal at 0.000508053 (first series) ([1]; concentration 0.000508053, first replicate series, fraction of control): 0.9377
- normalized signal at 0.000508053 (second series) ([1]; concentration 0.000508053, second replicate series, fraction of control): 0.6684
- normalized signal at 0.00152416 (first series) ([1]; concentration 0.00152416, first replicate series, fraction of control): 0.8855
- normalized signal at 0.00152416 (second series) ([1]; concentration 0.00152416, second replicate series, fraction of control): 0.8915
- normalized signal at 0.00457247 (first series) ([1]; concentration 0.00457247, first replicate series, fraction of control): 0.8808
- normalized signal at 0.00457247 (second series) ([1]; concentration 0.00457247, second replicate series, fraction of control): 0.7577
- normalized signal at 0.0137174 (first series) ([1]; concentration 0.0137174, first replicate series, fraction of control): 0.9989
- normalized signal at 0.0137174 (second series) ([1]; concentration 0.0137174, second replicate series, fraction of control): 0.749
- normalized signal at 0.0411523 (first series) ([1]; concentration 0.0411523, first replicate series, fraction of control): 0.8536
- normalized signal at 0.0411523 (second series) ([1]; concentration 0.0411523, second replicate series, fraction of control): 0.9352
- normalized signal at 0.123457 (first series) ([1]; concentration 0.123457, first replicate series, fraction of control): 0.9414
- normalized signal at 0.123457 (second series) ([1]; concentration 0.123457, second replicate series, fraction of control): 0.925
- normalized signal at 0.37037 (first series) ([1]; concentration 0.37037, first replicate series, fraction of control): 0.9548
- normalized signal at 0.37037 (second series) ([1]; concentration 0.37037, second replicate series, fraction of control): 0.6557
- normalized signal at 1.11111 (first series) ([1]; concentration 1.11111, first replicate series, fraction of control): 1.032
- normalized signal at 1.11111 (second series) ([1]; concentration 1.11111, second replicate series, fraction of control): 0.7805
- normalized signal at 3.33333 (first series) ([1]; concentration 3.33333, first replicate series, fraction of control): 1.162
- normalized signal at 3.33333 (second series) ([1]; concentration 3.33333, second replicate series, fraction of control): 0.8715
- normalized signal at 10 (first series) ([1]; concentration 10, first replicate series, fraction of control): 0.7935
- normalized signal at 10 (second series) ([1]; concentration 10, second replicate series, fraction of control): 0.8747
- IC50 ([1]; 2nd round, Broad DOS compounds, unit not printed (dose series head 10 to 0.000508053)): > 10 µM
- Tox_max_inhibition (%) [2, 4]: 6.57%
- IC50 ([2]; 2nd round, unit inferred): > 10 µM

Structure (SMILES): COc1ccc(CNC(=O)C[C@H]2CC[C@@H](NC(=O)CN(C)C)[C@H](CO)O2)cc1 [BRD-K05060234-001-01-0]
- normalised signal at concentration 0.000508053 (first series) [1]: 0.9876
- normalised signal at concentration 0.000508053 (second series) [1]: 0.95
- normalised signal at concentration 0.00152416 (first series) [1]: 0.9394
- normalised signal at concentration 0.00152416 (second series) [1]: 1.006
- normalised signal at concentration 0.00457247 (first series) [1]: 1.108
- normalised signal at concentration 0.00457247 (second series) [1]: 1.09
- normalised signal at concentration 0.0137174 (first series) [1]: 1.028
- normalised signal at concentration 0.0137174 (second series) [1]: 1.083
- normalised signal at concentration 0.0411523 (first series) [1]: 1.04
- normalised signal at concentration 0.0411523 (second series) [1]: 1.112
- normalised signal at concentration 0.123457 (first series) [1]: 1.099
- normalised signal at concentration 0.123457 (second series) [1]: 1.024
- normalised signal at concentration 0.37037 (first series) [1]: 1.009
- normalised signal at concentration 0.37037 (second series) [1]: 0.9385
- normalised signal at concentration 1.11111 (first series) [1]: 1.251
- normalised signal at concentration 1.11111 (second series) [1]: 1.0925
- normalised signal at concentration 3.33333 (first series) [1]: 1.234
- normalised signal at concentration 3.33333 (second series) [1]: 0.8448
- normalised signal at concentration 10 (first series) [1]: 0.9455
- normalised signal at concentration 10 (second series) [1]: 0.8679
- IC50 [1, 3]: > 10 µM
- PbLuc_max_inhibition (%) ([1]; sheet "2nd round"): 16%
- IC50 ([2]; sheet "2nd round"): > 10 µM
- Tox_max_inhibition (%) ([2]; sheet "2nd round"): 11%

Structure (SMILES): Cc1ccc(S(=O)(=O)N(C)C[C@H]2Oc3cc(C#CC4CCCC4)ccc3S(=O)(=O)N([C@@H](C)CO)C[C@H]2C)cc1 [BRD-K99467823-001-01-1]
- IC50 ([2]; sheet 2nd round): > 10 µM
- Tox_max_inhibition (%) [2, 5]: 31%

Structure (SMILES): N#C[C@@H]1[C@H](c2ccccc2)[C@H](CO)N1C(=O)Nc1cccc(F)c1 [BRD-K99496840-001-01-9]
- IC50 ([2]; sheet 2nd round): > 10 µM
- Tox_max_inhibition (%) [2, 5]: 4.23%
